Data: article PMC6370756 (2019)

Key:
[1] = tested on: SP-PGQ-1 (DNA, G4) GGGCAACTTGGCTGGGGTCTAGTTCCACGGGACGGG; assay: ITC; details: K+ (10 mM potassium phosphate); pH 7.2, 25 °C; two-site fit, high-affinity site; site 1 of 2
[2] = tested on: SP-PGQ-3 (DNA, G4) GGGCTAATAGGGAGAGCAGGGACGGGG; assay: ITC; details: K+ (10 mM potassium phosphate); pH 7.2, 25 °C; two-site fit, high-affinity site; site 1 of 2

For C[n+]1ccc(-c2c3nc(c(-c4cc[n+](C)cc4)c4ccc([nH]4)c(-c4cc[n+](C)cc4)c4nc(c(-c5cc[n+](C)cc5)c5ccc2[nH]5)C=C4)C=C3)cc1, the Ka [1] was 1.59e+06 M⁻¹ and the Ka [2] was 2.49e+07 M⁻¹.
